# System: green peach aphid (Myzus persicae)
# Assay: Myzus test (MYZUPE), sprayed aubergine plants
# Type: in vivo
# Details: application rate of 100 ppm, spray on aubergine plants, read-out: effect in % (aphids killed)
# Description: Solvent: 3 parts by weight of dimethylformamide Emulsifier: 1 part by weight of polyoxyethylenealkyl phenyl ether
# An appropriate preparation of active ingredient is prepared by mixing 1 part by weight of active ingredient with the stated amount of solvent and emulsifier and diluting the concentrate with water to the desired concentration.
# Aubergine plants (Solanum melongena) infested by all stages of the green peach aphid (Myzus persicae) are sprayed with a preparation of active ingredient at the desired concentration.
# After the desired time, the effect in % is determined; here, 100% means that all of the aphids have been killed. Conversely, 0% means that no aphids have been killed.
row,SMILES,pest or weed control at 100 ppm
1,CN(C(=O)c1ccc(Oc2ccc(OC(F)(F)F)cc2)nc1)c1cccnc1 [I-95],≥ 80%

# Same assay, conditions: application rate of 500 ppm, spray on aubergine plants, read-out: effect in % (aphids killed)
row,SMILES,pest or weed control at 500 ppm
1,CN(C(=O)c1ccc(Oc2cnc(C(F)(F)F)nc2)nc1)c1cccnc1 [I-185],≥ 80%
2,CCN(C(=O)c1ccc(Oc2nc(OC)cc(OC)n2)cc1)c1cccnc1 [I-172],≥ 80%
3,Cc1cc(C)nc(Sc2ccc(C(=O)N(Cc3ccc(C#N)cc3)c3cccnc3)cn2)n1 [I-228],≥ 80%
4,CCCCSCc1ccc(C(=O)Nc2cccnc2)cc1 [I-40],≥ 80%
5,CCN(C)C(=O)c1cc(C(=O)N(C)c2cccnc2)ccc1OC [I-77],≥ 80%
6,CCN(C(=O)c1ccc(Cl)nc1)c1cccnc1 [I-191],≥ 80%
7,CN(C(=O)c1ccc(Sc2ccc(C(F)(F)F)cc2)nc1)c1cccnc1 [I-118],≥ 80%
8,O=C(Nc1cccnc1)c1ccc(Cn2nc(C(F)(F)F)nc2C(F)(F)F)c(Cl)c1 [I-18],≥ 80%
9,CCSc1ccc(C(=O)Nc2cccnc2)cc1 [I-55],≥ 80%
10,CCN(C)C(=O)c1cccc(C(=O)Nc2cccnc2)c1 [I-71],≥ 80%
11,Cc1cc(C)nc(Sc2ccc(C(=O)N(C)c3ccnnc3)cn2)n1 [I-222],≥ 80%
12,CSCc1cccc(C(=O)N(C)c2cccnc2)c1 [I-57],≥ 80%
13,O=C(Nc1cccnc1)c1ccc(CSC(F)F)cc1 [I-35],≥ 80%
14,CN(C(=O)c1ccc(Oc2cccc(C(F)(F)F)c2)nc1)c1cccnc1 [I-100],≥ 80%
15,Cc1ccc(Oc2ccc(C(=O)N(C)c3cccnc3)cn2)cc1 [I-102],≥ 80%
16,CCN(C(=O)c1ccc(Oc2ccc(Cl)cc2)nc1)c1cccnc1 [I-161],≥ 80%
17,CN(C(=O)c1ccc(Cn2cccn2)cc1)c1cccnc1 [I-23],≥ 80%
18,CCN(C(=O)c1ccc(C(=O)OC)cc1)c1cccnc1 [I-241],≥ 80%
19,CCSc1ccc(C(=O)N(C)c2cccnc2)cc1 [I-56],≥ 80%
20,CN(C(=O)c1ccc(Oc2ccc3cccnc3c2)nc1)c1cccnc1 [I-141],≥ 80%
21,Cc1cc(C)nc(SCc2ccc(C(=O)N(C)c3cccnc3)cc2)n1 [I-70],≥ 80%
22,CCN(C)C(=O)c1cccc(C(=O)N(C)c2cccnc2)c1 [I-74],≥ 80%

row,SMILES,pest or weed control at 500 ppm
1,CN(C(=O)c1ccc(SC(F)(F)F)cc1)c1cccnc1 [I-54],≥ 80%
2,CC(=O)N(C)c1ccc(C(=O)N(C)c2cccnc2)cc1 [I-253],≥ 80%
3,Cc1nc(Sc2ncc(C(=O)N(C)c3cccnc3)cc2Cl)nc(C)c1C [I-167],≥ 80%
4,Cc1cc(C)nc(Sc2ccc(C(=O)Nc3cccnc3)cn2)n1 [I-159],≥ 80%
5,O=C(Nc1cccnc1)c1ccc(Cn2cnc(C(F)(F)C(F)(F)F)n2)cc1 [I-17],≥ 80%
6,CN(C(=O)c1ccc(Sc2ccc(C(F)(F)F)cn2)nc1)c1cccnc1 [I-119],≥ 80%
7,CCN(C(=O)c1ccc(/C=N/OC(C)C)cc1)c1cccnc1 [I-236],≥ 80%
8,CN(C(=O)c1ccc(Oc2ccc(Cl)cc2Cl)nc1)c1cccnc1 [I-114],≥ 80%
9,CSCc1cccc(C(=O)Nc2cccnc2)c1 [I-16],≥ 80%
10,COc1ccc(C(=O)Nc2cccnc2)cc1C(=O)NC(C)C [I-78],≥ 80%
11,CCOc1ccc(C(=O)N(C)c2cccnc2)cn1 [I-156],≥ 80%
12,CN(C(=O)c1ccc(Oc2ccc(C#N)cc2)nc1)c1cccnc1 [I-90],≥ 80%
13,Cc1ccc(Oc2ccc(C(=O)N(C)c3cccnc3)cn2)cn1 [I-80],≥ 80%
14,CCN(C(=O)c1ccc(Oc2ccc(S(C)(=O)=O)cc2)nc1)c1cccnc1 [I-154],≥ 80%
15,CSCc1ccc(C(=O)Nc2cccnc2)cc1 [I-32],≥ 80%
16,CN(C(=O)c1ccc([N+](=O)[O-])cc1)c1cccnc1 [I-21],≥ 80%
17,CN(C)C(=O)c1ccc(C(=O)Nc2cccnc2)cc1 [I-41],≥ 80%
18,C=CCN(C(=O)c1ccc(Cl)nc1)c1cccnc1 [I-231],≥ 80%
19,CN(C(=O)c1ccc(Sc2ncccn2)nc1)c1cccnc1 [I-136],≥ 80%
20,Cc1ccc(C(=O)Nc2cccnc2)cn1 [I-38],≥ 80%
21,CCSCc1ccc(C(=O)N(C)c2cccnc2)cc1 [I-58],≥ 80%
22,COc1nc(OC)nc(Sc2ccc(C(=O)N(C)c3cccnc3)cn2)n1 [I-200],≥ 80%

row,SMILES,pest or weed control at 500 ppm
1,O=C(Nc1cccnc1)c1ccc(Oc2ccccc2Cl)nc1 [I-82],≥ 80%
2,"O=C(Nc1cccnc1)c1ccc(Oc2cccc(Cl)c2)nc1 [I-83, 6-(3-Chlorophenoxy)-N-pyridin-3-ylnicotinamide]",≥ 80%
3,COc1ccc(Sc2ccc(C(=O)N(C)c3cccnc3)cn2)cc1 [I-106],≥ 80%
4,O=C(Nc1cccnc1)c1ccc(Cn2nc(C(F)(F)F)cc2C(F)(F)F)nc1 [I-9],≥ 80%
5,CCCSc1ccc(C(=O)Nc2cccnc2)cc1 [I-68],≥ 80%
6,Cc1cc(C)nc(Oc2ccc(C(=O)Nc3cccnc3)cc2)n1 [I-181],≥ 80%
7,CCN(C(=O)c1ccc(Sc2nc(OC)cc(OC)n2)nc1)c1cccnc1 [I-175],≥ 80%
8,CN(C(=O)c1ccc(Oc2ccc([N+](=O)[O-])cc2)nc1)c1cccnc1 [I-93],≥ 80%
9,CN(C(=O)c1ccc(N(C)C(=O)C(F)(F)Cl)cc1)c1cccnc1 [I-245],≥ 80%
10,O=C(Nc1cccnc1)c1ccc(Oc2ccc(C(F)(F)F)cc2)nc1 [I-109],≥ 80%
11,CCN(C(=O)c1ccc(N(C)C(=O)C(F)(F)Cl)cc1)c1cccnc1 [I-246],≥ 80%
12,CSCc1ccc(C(=O)N(C)c2cccnc2)cc1 [I-59],≥ 80%
13,O=C(Nc1cccnc1)c1ccc(NCCN2CCOCC2)nc1 [I-223],≥ 80%
14,COc1ccc(C(=O)N(C)c2cccnc2)cn1 [I-155],≥ 80%
15,CN(C(=O)c1cnc(Oc2ccc(S(C)(=O)=O)cc2)c(Cl)c1)c1cccnc1 [I-148],≥ 80%
16,CN(C(=O)c1ccc(Cn2cncn2)cc1)c1cccnc1 [I-22],≥ 80%
17,CN(C(=O)c1ccc(Oc2cc(Cl)cc(Cl)c2)nc1)c1cccnc1 [I-123],≥ 80%
18,CN(C(=O)c1cccc(Cn2cncn2)c1)c1cccnc1 [I-15],≥ 80%
19,CN(C(=O)c1ccc(C(=O)NCc2ccccc2)cc1)c1cccnc1 [I-255],≥ 80%
20,CN(C(=O)c1ccc(Cn2nc(C(F)(F)F)cc2C(F)(F)F)nc1)c1cccnc1 [I-49],≥ 80%
21,CN(C(=O)c1cccc(COc2ccc(C(F)(F)F)cc2)c1)c1cccnc1 [I-14],≥ 80%
22,O=C(Nc1cccnc1)c1ccc(Cn2ccc(C(F)(F)F)n2)nc1 [I-28],≥ 80%

row,SMILES,pest or weed control at 500 ppm
1,CC(=O)N(Cc1ccc(C(=O)N(C)c2cccnc2)cc1)CC(C)C [I-238],≥ 80%
2,CCN(C(=O)c1ccc(SC)cc1)c1cccnc1 [I-63],≥ 80%
3,CN(C(=O)c1ccc(Oc2cccc(Cl)c2)nc1)c1cccnc1 [I-99],≥ 80%
4,CCN(C(=O)c1ccc(Sc2nc(C)c(C)c(C)n2)nc1)c1cccnc1 [I-220],≥ 80%
5,CC(C)SCc1ccc(C(=O)Nc2cccnc2)cc1 [I-34],≥ 80%
6,CC(C)SCc1ccc(C(=O)N(C)c2cccnc2)cc1 [I-61],≥ 80%
7,CN(C(=O)c1ccc(/C=N/C2CCCC2)cc1)c1cccnc1 [I-233],≥ 80%
8,CCN(C(=O)c1ccc(Sc2nc(OC)nc(OC)n2)cc1)c1cccnc1 [I-190],≥ 80%
9,CSc1cccc(C(=O)N(C)c2cccnc2)c1 [I-69],≥ 80%
10,Cc1ccc(Oc2ccc(C(=O)Nc3cccnc3)cc2)cn1 [I-103],≥ 80%
11,CCN(C(=O)c1ccc(Oc2ccc(C)cn2)nc1)c1cccnc1 [I-193],≥ 80%
12,Cc1cc(C)nc(Oc2ccc(C(=O)N(C)c3cccnc3)cn2)n1 [I-144],≥ 80%
13,CN(C(=O)c1ccc(Oc2cc(C(F)(F)F)cc(C(F)(F)F)c2)nc1)c1cccnc1 [I-124],≥ 80%
14,CCN(C(=O)c1ccc(Oc2nc(C)cc(C)n2)cc1)c1cccnc1 [I-183],≥ 80%
15,CN(C(=O)c1cccc(Cn2nc(C(F)(F)F)cc2C(F)(F)F)c1)c1cccnc1 [I-13],≥ 80%
16,CN(C(=O)c1cccc(Cn2cnc(C(F)(F)F)n2)c1)c1cccnc1 [I-12],≥ 80%
17,CC(C(=O)c1ccc(Oc2cccc3ncccc23)nc1)c1cccnc1 (stereo not drawn) [I-142],≥ 80%
18,CCN(C(=O)c1ccc(Oc2cccc(C(F)(F)F)c2)nc1)c1cccnc1 [I-221],≥ 80%
19,CCN(C(=O)c1ccc(Oc2nc(C)cc(C)n2)nc1)c1cccnc1 [I-187],≥ 80%
20,COc1nc(OC)nc(Sc2ccc(C(=O)N(C)c3cccnc3)cc2)n1 [I-189],≥ 80%
21,CCN(C(=O)c1ccc(Sc2nc(OC)cc(OC)n2)cc1)c1cccnc1 [I-178],≥ 80%
22,COc1cc(OC)nc(Oc2ccc(C(=O)Nc3cccnc3)cc2)n1 [I-170],≥ 80%

# Same assay, conditions: read-out: effect in % (aphids killed)
row,SMILES,pest or weed control at 500 ppm
1,CCN(C(=O)c1ccc(N(C)C(=O)C(F)(F)C(F)(F)C(F)(F)F)cc1)c1cccnc1 [I-248],≥ 80%

# Source: patent US20100305124A1, “Acylated Aminopyridine and Aminopyridazine Insecticides” (BAYER CROPSCIENCE AG, priority 2009, published 2010)
